Test results from patent publication US20260028326A1, “COMPOUND BASED ON ISOINDOLINE-SUBSTITUTED GLUTARIMIDE BACKBONE AND USE THEREOF” (GLUETACS THERAPEUTICS (SHANGHAI) CO., LTD., priority 2022, published 2026).
pIC50: −log10 of the molar value.

Each molecule was assayed against human Cereblon WT GST-tagged protein (Homo sapiens (Human), UniProt Q96SW2) (assay: CRBN-binding affinity, HTRF (CEREBLON BINDING kit)).
Experimental: The CEREBLON BINDING kits (specification: 10,000 tests; product number: Catalog #64BDCRBNPEH; CISBIO company) was used to determine the CRBN binding ability of the compounds to be tested through a HTRF method (homogeneous time-resolved fluorescence). The specific methods are as follows: • 1. […] Then, 2.5 μL of human Cereblon WT GST-tagged protein solution was added to each well. Finally, 5 μL of the thoroughly mixed Thalidomide-Re reagent and GST Eu antibody working solution were added to each of the aforementioned wells. […] The blank control wells were sequentially added with 2.5 μL of diluent #9 (1×) solution, 2.5 μL of PROTAC binding buffer, and 5 μL of thoroughly mixed Thalidomide-Re reagent and GST Eu antibody working solution. • 4.
The corresponding CRBN binding inhibition rate was calculated using the following method: […]

human Cereblon WT GST-tagged protein, sequence (Q96SW2 whole entry): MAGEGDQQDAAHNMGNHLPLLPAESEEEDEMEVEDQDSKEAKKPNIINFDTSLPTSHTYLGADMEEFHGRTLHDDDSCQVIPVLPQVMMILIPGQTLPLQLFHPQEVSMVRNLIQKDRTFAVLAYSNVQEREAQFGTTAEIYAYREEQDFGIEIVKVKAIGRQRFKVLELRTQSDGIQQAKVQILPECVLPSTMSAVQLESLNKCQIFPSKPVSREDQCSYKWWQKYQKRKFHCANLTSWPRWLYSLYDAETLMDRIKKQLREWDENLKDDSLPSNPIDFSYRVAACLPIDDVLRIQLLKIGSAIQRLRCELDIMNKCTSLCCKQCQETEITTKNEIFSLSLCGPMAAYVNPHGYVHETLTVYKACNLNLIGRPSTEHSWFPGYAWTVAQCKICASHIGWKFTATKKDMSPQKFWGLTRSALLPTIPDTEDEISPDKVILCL

Compared with `O=C1CCC(N2Cc3cc(C(=O)N4CC5(CN(Cc6ccccc6-c6ccc(Cl)cc6)C5)C4)ccc3C2=O)C(=O)N1` (stereo not shown) [GT-05637, 3-(5-(6-((4′-chloro-[1,1′-biphenyl]-2-yl)methyl)-2,6-diazaspiro[3.3]heptane-2-carbonyl)-1-oxoisoindolin-2-yl)piperidine-2,6-dione], `O=C1CCC(N2Cc3cc(CN4CC5CCC(C4)N5Cc4ccccc4-c4ccc(Cl)cc4)ccc3C2=O)C(=O)N1` (stereo not shown) [GT-05618, 3-(5-((8-((4′-chloro-[1,1′-biphenyl]-2-yl)methyl)-3,8-diazabicyclo[3.2.1]octan-3-yl)methyl)-1-oxoisoindolin-2-yl)piperidine-2,6-dione] is 0.27 log units higher in pIC50: 5.97 for the first, 6.24 for the second. The second is the more potent here.

`CC1(C)CCC(CN2CC3CC(C2)N3Cc2ccc3c(c2)CN(C2CCC(=O)NC2=O)C3=O)=C(c2ccc(Cl)cc2)C1` (stereo not shown) [GT-03492, 3-(5-((3-((4′-chloro-5,5-dimethyl-3,4,5,6-tetrahydro-[1,1′-biphenyl]-2-yl)methyl)-3,6-diazabicyclo[3.1.1]heptan-6-yl)methyl)-1-oxoisoindolin-2-yl)piperidine-2,6-dione] and `CC1(C)CCC(C(=O)N2CC3CC2CN3Cc2ccc3c(c2)CN(C2CCC(=O)NC2=O)C3=O)=C(c2ccc(Cl)cc2)C1` (stereo not shown) [GT-05524, 3-(5-((5-(4′-chloro-5,5-dimethyl-3,4,5,6-tetrahydro-[1,1′-biphenyl]-2-carbonyl)-2,5-diazabicyclo[2.2.1]heptan-2-yl)methyl)-1-oxoisoindolin-2-yl)piperidine-2,6-dione] are within 0.2 log units of each other in pIC50: 6.28 for the first, 6.31 for the second.

Going from `CC1(C)CCC(C(=O)N2CCN(Nc3ccc4c(c3)CN(C3CCC(=O)NC3=O)C4=O)CC2)=C(c2ccc(Cl)cc2)C1` (stereo not shown) [GT-05417, 3-(5-((4-(4′-chloro-5,5-dimethyl-3,4,5,6-tetrahydro-[1,1′-biphenyl]-2-carbonyl)piperazin-1-yl)amino)-1-oxoisoindolin-2-yl)piperidine-2,6-dione] to `CC1(C)CCC(C(=O)N2CCC(Nc3ccc4c(c3)CN(C3CCC(=O)NC3=O)C4=O)CC2)=C(c2ccc(Cl)cc2)C1` (stereo not shown) [GT-05783, 3-(5-((1-(4′-chloro-5,5-dimethyl-3,4,5,6-tetrahydro-[1,1′-biphenyl]-2-carbonyl)piperidin-4-yl)amino)-1-oxoisoindolin-2-yl)piperidine-2,6-dione], the pIC50 rises from 5.83 to 6.03 (0.20 log units). The second is the more potent here.

Compared with `CC1(C)CCC(CN2CCC(Nc3ccc4c(c3)CN(C3CCC(=O)NC3=O)C4=O)CC2)=C(c2ccc(F)cc2)C1` (stereo not shown) [GT-05785, 3-(5-((1-((4′-fluoro-5,5-dimethyl-3,4,5,6-tetrahydro-[1,1′-biphenyl]-2-yl)methyl)piperidin-4-yl)amino)-1-oxoisoindolin-2-yl)piperidine-2,6-dione], `CC1(C)CCC(CN2CC(O)(C(O)c3ccc4c(c3)CN(C3CCC(=O)NC3=O)C4=O)C2)=C(c2ccc(F)cc2)C1` (stereo not shown) [GT-05499, 3-(5-((1-((4′-fluoro-5,5-dimethyl-3,4,5,6-tetrahydro-[1,1′-biphenyl]-2-yl)methyl)-3-hydroxyazetidin-3-yl)(hydroxy)methyl)-1-oxoisoindolin-2-yl)piperidine-2,6-dione] is 0.27 log units higher in pIC50: 5.90 for the first, 6.17 for the second.

`O=C1CCC(N2Cc3cc(CN4CCN(C(=O)c5cnc(-c6ccccc6)cn5)CC4)ccc3C2=O)C(=O)N1` (stereo not shown) [GT-05635, 3-(1-oxo-5-((4-(5-phenylpyrazine-2-carbonyl)piperazin-1-yl)methyl)isoindolin-2-yl)piperidine-2,6-dione] and `O=C1CCC(N2Cc3ccc(CN4CCN(C(=O)C5=C(c6ccc(F)cc6)CCCC5)CC4)cc3C2=O)C(=O)N1` (stereo not shown) [GT-05470, 3-(6-((4-(4′-fluoro-3,4,5,6-tetrahydro-[1,1′-biphenyl]-2-carbonyl)piperazin-1-yl)methyl)-1-oxoisoindolin-2-yl)piperidine-2,6-dione] are within 0.2 log units of each other in pIC50: 6.00 for the first, 6.01 for the second.

Compared with `CC1(C)CCC(C(=O)N2CCN(Cc3ccc4c(c3F)CN(C3CCC(=O)NC3=O)C4=O)CC2)=C(c2ccc(Cl)cc2)C1` (stereo not shown) [GT-05525, 3-(5-((4-(4′-chloro-5,5-dimethyl-3,4,5,6-tetrahydro-[1,1′-biphenyl]-2-carbonyl)piperazin-1-yl)methyl)-4-fluoro-1-oxoisoindolin-2-yl)piperidine-2,6-dione], `CC1(C)CCC(CN2CCN(C(=O)c3ccc4c(c3)CN(C3CCC(=O)NC3=O)C4=O)CC2)=C(c2ccc(Cl)cc2)C1` (stereo not shown) [GT-05445, 3-(5-(4-((4′-chloro-5,5-dimethyl-3,4,5,6-tetrahydro-[1,1′-biphenyl]-2-yl)methyl)piperazine-1-carbonyl)-1-oxoisoindolin-2-yl)piperidine-2,6-dione] is 0.43 log units lower in pIC50: 6.15 for the first, 5.72 for the second. The first is the more potent here.

First: CC1(C)CCC(CN2CC(O)(C(O)c3ccc4c(c3)CN(C3CCC(=O)NC3=O)C4=O)C2)=C(c2ccc(Cl)cc2)C1 (stereo not shown) [GT-05427, 3-(5-((1-((4′-chloro-5,5-dimethyl-3,4,5,6-tetrahydro-[1,1′-biphenyl]-2-yl)methyl)-3-hydroxyazetidin-3-yl)(hydroxy)methyl)-1-oxoisoindolin-2-yl)piperidine-2,6-dione]
Second: CC1(C)CCC(CN2CCN(CCc3ccc4c(c3)CN(C3CCC(=O)NC3=O)C4=O)CC2)=C(c2ccc(Cl)cc2)C1 (stereo not shown) [GT-05361, 3-(5-(2-(4-((4′-chloro-5,5-dimethyl-3,4,5,6-tetrahydro-[1,1′-biphenyl]-2-yl)methyl)piperazin-1-yl)ethyl)-1-oxoisoindolin-2-yl)piperidine-2,6-dione]
The pIC50 of the first is 0.41 log units lower: 6.02 for the first, 6.43 for the second.

`O=C1CCC(N2Cc3c(CN4C5CC4CN(C(=O)C4=C(c6ccc(F)cc6)CCCC4)C5)cccc3C2=O)C(=O)N1` (stereo not shown) [GT-05478, 3-(4-((3-(4′-fluoro-3,4,5,6-tetrahydro-[1,1′-biphenyl]-2-carbonyl)-3,6-diazabicyclo[3.1.1]heptan-6-yl)methyl)-1-oxoisoindolin-2-yl)piperidine-2,6-dione] and `CC1(C)CCC(C(=O)N2CC3CCC2CN3C(=O)c2ccc3c(c2)CN(C2CCC(=O)NC2=O)C3=O)=C(c2ccc(Cl)cc2)C1` (stereo not shown) [GT-05663, 3-(5-(5-(4′-chloro-5,5-dimethyl-3,4,5,6-tetrahydro-[1,1′-biphenyl]-2-carbonyl)-2,5-diazabicyclo[2.2.2]octane-2-carbonyl)-1-oxoisoindolin-2-yl)piperidine-2,6-dione] are within 0.2 log units of each other in pIC50: 5.95 for the first, 5.96 for the second.

`CC1(C)CCC(CN2C3CC2CN(c2ccc4c(c2)C(=O)N(C2CCC(=O)NC2=O)C4=O)C3)=C(c2ccc(Cl)cc2)C1` (stereo not shown) [GT-05378, 5-(6-((4′-chloro-5,5-dimethyl-3,4,5,6-tetrahydro-[1,1′-biphenyl]-2-yl)methyl)-3,6-diazabicyclo[3.1.1]heptan-3-yl)-2-(2,6-dioxopiperidin-3-yl)isoindoline-1,3-dione] and `CC1(C)CCC(CN2CC3CCC2CN3Cc2cc3c(cc2F)C(=O)N(C2CCC(=O)NC2=O)C3)=C(c2ccc(Cl)cc2)C1` (stereo not shown) [GT-05460, 3-(5-((5-((4′-chloro-5,5-dimethyl-3,4,5,6-tetrahydro-[1,1′-biphenyl]-2-yl)methyl)-2,5-diazabicyclo[2.2.2]octan-2-yl)methyl)-6-fluoro-1-oxoisoindolin-2-yl)piperidine-2,6-dione] are within 0.2 log units of each other in pIC50: 5.75 for the first, 5.79 for the second.

Molecule `O=C1CCC(N2Cc3c(CN4CCC(Nc5ccccc5-c5ccc(Cl)cc5)CC4)cccc3C2=O)C(=O)N1` (stereo not shown) [GT-04947, 3-(4-((4-((4′-chloro-[1,1′-biphenyl]-2-yl)amino)piperidin-1-yl)methyl)-1-oxoisoindolin-2-yl)piperidine-2,6-dione] has a pIC50 of 6.41.
